Consider 10 molecules from patent US20130252843A1, “METHOD OF MAKING AND USING FLUORESCENT-TAGGED NANOPARTICLES AND MICROARRAYS” (THE STATE OF OREGON ACTING BY AND THROUGH THE STATE BOARD …, priority 2010, published 2013).

Values joined by “and” are separate entries in the source; they are usually repeats but may differ in a detail not shown here. Equal entries are not always repeated. Where two headings read alike, the source gives them in different places.

For one data set, the target named is CVN-Q (Nostoc ellipsosporum, UniProt P81180, Q50C).
Another data set concerns the target CVN-M (Nostoc ellipsosporum, UniProt P81180, E41A/N42A/T57A/R76A/Q78G).
The target in data set [1] is T1, Con A (Canavalia ensiformis, UniProt P02866).
T1 construct: purchased Sigma-Aldrich Type IV (catalogue number not given)

Data set [2] concerns the target blindly prepared lectins (U1-U7) (Glycine max, UniProt P05046). The class given is binding. More on the design: unit not given here. The method, then:
(§1) The unspecific binding sites of Sugar coupled Au-PFPA was inhibited by the addition of BSA (3% BSA, 0.2% Tween in PBS buffer pH 7). The 1,500 μL of sugar-coupled Au-PFPA was centrifuged at 9,000 rpm for 8 minutes and was redissolved in a PBS buffer with 3% BSA (0.2% Tween). The volume was made up to 900 μL. The resultant solution was incubated at room temperature with gentle shaking for 1 hour. The BSA blocked Au-PFPA-sugar nanoparticle was centrifuged at 10,000 rpm for 6 minutes and the excess BSA was removed. To a volume of 1,500 μL solution 10 mg/mL lectin (Con A—Concanavalin A, Canavalia ensiformis jack bean protein, SBA—soybean agglutinin, Glycine max and PNA—Peanut Agglutinin, Arachis hypogaea all purchased from Sigma Aldrich) was introduced the resultant solution was incubated at room temperature while gently shaking.
(§2) To test the training matrix and its strength to identify individual lectins, seven blindly prepared lectins (U1-U7) were used as test samples. The procedure for each test sample is the same as that used for the known samples used in the training matrix. The final SPR shift (Table 14) was used in the training matrix (Table 10) for prediction.

For another data set, the target named is T2, ConA-FSNPs (Canavalia ensiformis, UniProt P02866).
T2 construct: purchased Sigma-Aldrich Type IV
Description: Carbohydrate microarray incubated with ConA-FSNPs, fluorescence imaging. It counts as binding. Conditions: PS coating; ConA-FSNPs 0.5 mg/ml. The protocol:
This example concerns the fabrication of carbohydrate microarrays. […] The slides were then reacted with PAAm-4-PFPA solution at 50° C. for 5 hours, and sonicated twice in H2O for 5 minutes each time. Solutions of carbohydrates were prepared in H2O. […] The slides were dried under oil pump for 1 hour. A solution of PS or PEO in CHCl3 (5 mg/ml) was spinning-coated on the slides. The Slides were then covered with a 280-nm long-path optical filter (WG-280, Schott Glass), irradiated with a 450-W medium pressure Hg lamp (Hanovia) for 9 min, sonicated 5 min in CHCl3 and 5 minutes in H2O.
This example concerns microarray assay and fluorescence imaging. Carbohydrate microarrays were incubated in a 0.5 mg/ml solution of ConA-FSNPs in HEPES (pH 7.5, 1 mM CaCl2, 1 mM MnCl2) for 1 hour, rinsed with HEPES buffer 3 times and dried. The slides were scanned using a Genepix 4000B microarray scanner at excitation of 532 nm. Image analysis was carried out with Axon Genepix Pro 5.1 analysis software (Molecular Devices Corporation, Union City, Calif.).
FIG. 52 provides the fluorescence images of carbohydrate microarrays with PS or PEO coating incubated with ConA-FSNPs at 0.5 mg/ml. […] However, for carbohydrate microarrays having a PEO coating, the signal from those “high-intensity” carbohydrate targets was negative (FIG. 53).

The nature of data set [3]: UV irradiation photostability. The note with it: 450-W medium-pressure Hg lamp, 10 minutes; of the original value. The class given is physicochemical. The protocol:
To confirm that the entrapped FITC would withstand the UV irradiation conditions used for a subsequent photocoupling reaction, a solution containing FITC-doped SNPs was irradiated with a 450-W medium-pressure Hg lamp for 10 minutes. […] See, FIG. 6. On the other hand, when the […] was irradiated under the same conditions, the fluorescent intensity was reduced to about 50% of the original value. See, FIG. 7.

The target in another data set is T3, PNA, Peanut Agglutinin (Arachis hypogaea, UniProt P02872).
T3 construct: purchased Sigma-Aldrich
The note with it: cited from earlier work.

The target of data set [4] is RCA, Ricinus Communis Agglutinin I. The note with it: cited from earlier work.
Data set [5] addresses T4, PNA (Arachis hypogaea, UniProt P02872).
T4 construct: purchased Sigma-Aldrich
T4 sequence (P02872 24-273): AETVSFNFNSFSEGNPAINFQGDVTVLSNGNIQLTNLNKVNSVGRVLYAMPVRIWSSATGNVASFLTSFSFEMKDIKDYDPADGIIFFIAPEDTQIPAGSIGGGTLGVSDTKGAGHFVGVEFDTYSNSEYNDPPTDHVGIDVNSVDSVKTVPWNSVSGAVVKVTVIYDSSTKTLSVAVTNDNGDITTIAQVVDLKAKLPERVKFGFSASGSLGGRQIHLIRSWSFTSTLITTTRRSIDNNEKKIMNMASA
The note with it: free glycan; cited from earlier work.

For data set [6], the target named is RCA (Ricinus Communis Agglutinin I) (Ricinus communis, UniProt P06750). Conditions: free glycan; cited from earlier work.
The target of data set [7] is DBA (Dolichos Biflorus Agglutinin) (Vigna unguiculata subsp. cylindrica, UniProt P05045). Conditions: free glycan; cited from earlier work.
For another data set, the target named is SBA (Soybean Agglutinin) (Glycine max, UniProt P05046). The note with it: free glycan; cited from earlier work.
Data set [8] has as its target blindly prepared lectins (U1-U7) (Canavalia ensiformis, UniProt P02866). The class given is binding. More on the design: unit not given here. The protocol:
as §1, §2

The target of data set [9] is blindly prepared lectins (U1-U7) (Arachis hypogaea, UniProt P02872). It counts as binding. More on the design: unit not given here. Conditions: unknown protein u5 (predicted class PNA). The protocol: as §1, §2
The target of the next data set is T5, SBA (Glycine max, UniProt P05046).
T5 construct: purchased Sigma-Aldrich
The experiment in a line: Protein bio assay, SPR shift of sugar coupled Au-PFPA nanoparticles with lectin. It counts as binding. More on the design: unit: nm. Conditions: replicates.
Excerpt: (§3) In other particular embodiments, the interactions between one or more targets and one or more PHPA-derived nanoparticle probes can be measured using absorbance spectroscopy. Particular embodiments concern using surface plasmon resonance. In these embodiments, both the λmax produced before the PHPA-derived nanoparticle probe interacts with the target and the λmax produced after the PHPA-derived nanoparticle probe interacts with the target are detected. The change in λmax provides a numerical number that can be used in further statistical analysis.
as §1
(§4) A training matrix was created using three lectins (Con A, SBA and PNA) and four types of sugar-bound Au-PFPA nanoparticles. Each assay was repeated three times, providing a 3×4×3 training matrix (Table 10). The factor scores (Zi from equation (1) or Fi) calculated for the training matrix from XLSTAT® were F1=98.10% and F2=1.90%.
(§5) A study was also done to identify different lectins using specific binding interaction between lectins and sugars (Wang, X.; Ramstrom, O.; Yan, M. J. Mat. Chem. 2009, 19, 8944-8949). The lectins used in the study were Con A, SBA, PNA and GSII. The sugars used were D-Mannose, D-Glucose, D-Galactose, α-1,4-mannobiose, α-1,3-galactobiose and N-acetyl-D-glucosamine. These sugars are known to have specific binding to lectins (Jurs, P. Science 1986, 232, 1219-1224). The training matrix was created as four lectins×six sugars×five replicates (Table 12). […] The Wilk's lamda (A) value for the training set was 0.000. […] The 95% confidence ellipses show clear spatial separation, and no overlap between the ellipses is visible. Unlike the weak binding interactions studied in before using non-specific binding sugars, the strong binding sugars show very good class separation.

For data set [10], the target named is T4, PNA. The description is as above. The note with it: replicates. It counts as binding. More on the design: unit: nm.
Excerpt: as §3, §1, §4, §5

Data set [11] addresses T1, Con A. The data set is described as above. More on the design: unit: nm. The class given is binding. The note with it: replicates.
Excerpt: as §3
as §1, with “shaking. […]” for “shaking.”

Where [12] appears, read: Domain A; cited from earlier work.
Setting [13] is: Domain B; cited from earlier work.
[14] abbreviates: free glycan; cited from earlier work.
The mark [15] stands for this setting: free glycan, solution; cited from earlier work.
Setting [16] is: unknown protein u1 (predicted class SBA).
Where [17] appears, read: unknown protein u7 (predicted class SBA).
Setting [18] is: unknown protein u3 (predicted class Con A).
Where [19] appears, read: unknown protein u4 (predicted class Con A).
[20] abbreviates: unknown protein u2 (predicted class SBA).
The mark [21] stands for this setting: unknown protein u6 (predicted class SBA).

Take `OC[C@H]1O[C@H](O[C@@H]2[C@@H](O[C@@H]3C(O)O[C@H](CO)[C@@H](O)[C@@H]3O)O[C@H](CO)[C@@H](O)[C@@H]2O)[C@@H](O)[C@@H](O)[C@@H]1O` (stereo partly drawn) [2α, 2α-Man3, α-1,2-α-1,2-mannotriose]: the “Association constant Ka with CVN-Q” value is given as 2.94 × 10^5 (Domain A); M^−1 at CVN-Q (setting [12]) and 2.33 × 10^4 (Domain B) M^−1 on CVN-Q (setting [13]). Further, the Kd is 15.5 µM on CVN-Q (data in brackets, free ligand; read-out: dissociation constant of the free ligand with CVN-Q; cited from earlier work); 3.4 µM at CVN-M (data in brackets, free ligand; read-out: dissociation constant of the free ligand with CVN-M; cited from earlier work); 2.97 µM on Con A [1] (data in brackets, free ligand; read-out: dissociation constant of the free ligand with Con A; cited from earlier work). In addition, the “Association constant Ka with CVN-M” value on CVN-M (setting [14]) and at CVN-M (free glycan; listed as 2α,2α-Man3; cited from earlier work) was 294000 M⁻¹ throughout. In addition, the “Association constant Ka with Con A” value was 379000 M⁻¹ on Con A [1] (setting [15]) and 379000 M⁻¹ at Con A [1] (free glycan, solution; listed as 2α,2α-Man3; cited from earlier work).

Take `O=C[C@H](O)[C@@H](O)[C@H](O[C@@H]1O[C@H](CO)[C@@H](O)[C@H](O)[C@H]1O)[C@H](O)CO` [Cellobiose]: the “Unknown SPR shift, weak binders” value in [2] (setting [16]) and in [2] (setting [17]) was 2.1 each time.

In the case of `OC[C@H]1O[C@H](O[C@@H]2C(O)O[C@H](CO)[C@@H](O)[C@@H]2O)[C@@H](O)[C@@H](O)[C@@H]1O` (stereo partly drawn) [Compound 2α-Man2, 2-O-α-D-Mannopyranosyl-D-mannopyranose], at ConA-FSNPs, the “labeling intensity by ConA-FSNPs on carbohydrate microarray” value (shortened to “labeling intensity by ConA-FSNPs”) is “most intensely”. For the same molecule, the entries for the “Association constant Ka with CVN-Q” value at CVN-Q (setting [12]) and at CVN-Q (setting [13]) were 1.43 × 10^3 (Domain A); M^−1 and 1.56 × 10^4 (Domain B) M^−1, respectively. For the same molecule, the Kd at CVN-Q (read-out: dissociation constant of the free ligand with CVN-Q; data in brackets, free ligand; cited from earlier work) is 89.8 µM; at CVN-M (read-out: dissociation constant of the free ligand with CVN-M; data in brackets, free ligand; cited from earlier work) it was 757 µM; at Con A [1] (read-out: dissociation constant of the free ligand with Con A; data in brackets, free ligand; cited from earlier work), 24 µM. Further, at CVN-M (setting [14]), the “Association constant Ka with CVN-M” value is 1320 M⁻¹. For the same molecule, the “Association constant Ka with Con A” value on Con A [1] (setting [15]) is 41700 M⁻¹.

Consider `O=C(O)c1cc(N=C=S)ccc1-c1c2ccc(=O)cc-2oc2cc(O)ccc12` [FITC, fluorescein isothiocyanate], for which the “fluorescence intensity after UV irradiation” value in data set [3] was “about 50%”.

With `OC[C@H]1OC(O)[C@H](O)[C@@H](O)[C@H]1O` (stereo partly drawn) [Gal, D-(+)-galactose], the Ka at PNA, Peanut Agglutinin is reported as ~10^3 M^−1; in data set [4], ~10^3 M^−1.

As for `CC(=O)N[C@H]1C(O)O[C@H](CO)[C@H](O)[C@@H]1O` (stereo partly drawn) [GalNAc], the “Association constant Ka with PNA” value at PNA [5] was 2430 M⁻¹. For the same molecule, the “Association constant Ka with RCA” value in data set [6] was 48400 M⁻¹. Also, the “Association constant Ka with DBA” value in [7] was 4200 M⁻¹. For the same molecule, on SBA (Soybean Agglutinin), the “Association constant Ka with SBA” value was 1.51e+06 M⁻¹.

`OC[C@H]1O[C@@H](O[C@H]2[C@H](O)[C@@H](O)[C@@H](O)O[C@@H]2CO)[C@H](O)[C@@H](O)[C@H]1O` [Lac]: the “labeling intensity by ConA-FSNPs” value on ConA-FSNPs was “slightly less”.

For the molecule Arabinose, the “Unknown SPR shift, weak binders” value in data set [8] (setting [18]) is on record as 1.1; in [8] (setting [19]), 1; in data set [2] (setting [16]), 4.5; in data set [2] (setting [20]), 5; in data set [2] (setting [21]), 4.5; in data set [2] (setting [17]) it was 4.5. Besides, in [9], the “Unknown SPR shift, weak binders” value is given as 1.9. Moreover, the “SPR shift, training matrix” value was 5.1 and 5.9 and 4.5 at SBA; 2.1 and 1.8 and 1.6 on PNA [10]; 1.9 and 0.8 and 1.1 at Con A [11].

For Dextran, the “labeling intensity by ConA-FSNPs” value at ConA-FSNPs is given as “slightly less”.

In the case of Lactose, the “Unknown SPR shift, weak binders” value in [8] (setting [18]) is listed as 5.5; in [8] (setting [19]), 5.7; in [2] (setting [16]), 1.6; in [2] (setting [20]), 1.1; in data set [2] (setting [21]) it was 1.6; in [2] (setting [17]) it was 1.1. The “Unknown SPR shift, weak binders” value in data set [9] is reported as 2.5. The “SPR shift, training matrix” value is 1.5 and 3.7 and 1.1 at SBA; 3.7 and 2 and 2.4 on PNA [10]; 6.2 and 5.1 and 7.9 at Con A [11].
